From US9108930B2, “N1- and N2-carbamoyl-1,2,3-triazole serine hydrolase inhibitors and methods” (The Scripps Research Institute, priority 2011, dated 2015)
“And” between values parts separate entries of the source, which are not always exact repeats. Equal values may be shown once.

Tests used:
[1] = target: T1, APEH recombinantly expressed in HEK-293 cells (Mus musculus, UniProt Q8R146); experiment: APEH exopeptidase assay with synthetic N-acetylated hexapeptides (LC-MS); type: biochemical; settings: 3 nM, 30 min pre-treatment
T1 construct: full-length cDNAs encoding mouse serine hydrolases were either transfected directly; host or cells: HEK-293
Description: Enzyme assays were performed with LC-MS by monitoring the release of the N-terminal N-acetyl amino acid. APEH was transiently overexpressed in HEK-293 cells and whole cell lysates were treated with DMSO or 3 nM AA74-1 for 30 minutes and adjusted to a final protein concentration of about 0.3 mg/mL with PBS buffer. For each reaction, about 200 μM of hexapeptide were incubated with lysates for 10 h at 37° C. before quenching with 0.8 mL MeOH. Samples were centrifuged for 10 minutes at 10,000×g at 4° C. and the supernatant was dried down under vacuum. For LC-MS analysis samples were injected into an Agilent 1100 LC-MSD SL instrument applying the following gradient: Buffer A (MeCN) to Buffer B (95:5 H2O/MeCN+50 mM NH4OAc+0.2% NH4OH). Data represent the average±s.d. for three experiments.
Enzyme assays were performed with LC-MS by monitoring the formation of free N-acetyl amino acid. Mouse APEH was recombinantly expressed in HEK-293 cells and whole cell lysates of overexpressed APEH (or mock) were pre-treated with DMSO or 3 nM AA74-1 for 30 minutes and adjusted to a final protein concentration of 0.3 mg/mL with PBS buffer. For each reaction 200 μM of hexapeptide substrate were incubated with lysates in 200 μL total reaction volume. Reactions were incubated for 10 h at 37° C. before quenching with 0.8 mL MeOH. […]

human APEH = target: T2, human APEH (Homo sapiens, UniProt P13798); experiment: Competitive ABPP, soluble fractions of human cancer cells; type: biochemical
T2 construct: endogenous in cells; host or cells: SKOV3, C8161, MDA-MB-231 (soluble fractions)
T2 sequence (P13798 whole entry): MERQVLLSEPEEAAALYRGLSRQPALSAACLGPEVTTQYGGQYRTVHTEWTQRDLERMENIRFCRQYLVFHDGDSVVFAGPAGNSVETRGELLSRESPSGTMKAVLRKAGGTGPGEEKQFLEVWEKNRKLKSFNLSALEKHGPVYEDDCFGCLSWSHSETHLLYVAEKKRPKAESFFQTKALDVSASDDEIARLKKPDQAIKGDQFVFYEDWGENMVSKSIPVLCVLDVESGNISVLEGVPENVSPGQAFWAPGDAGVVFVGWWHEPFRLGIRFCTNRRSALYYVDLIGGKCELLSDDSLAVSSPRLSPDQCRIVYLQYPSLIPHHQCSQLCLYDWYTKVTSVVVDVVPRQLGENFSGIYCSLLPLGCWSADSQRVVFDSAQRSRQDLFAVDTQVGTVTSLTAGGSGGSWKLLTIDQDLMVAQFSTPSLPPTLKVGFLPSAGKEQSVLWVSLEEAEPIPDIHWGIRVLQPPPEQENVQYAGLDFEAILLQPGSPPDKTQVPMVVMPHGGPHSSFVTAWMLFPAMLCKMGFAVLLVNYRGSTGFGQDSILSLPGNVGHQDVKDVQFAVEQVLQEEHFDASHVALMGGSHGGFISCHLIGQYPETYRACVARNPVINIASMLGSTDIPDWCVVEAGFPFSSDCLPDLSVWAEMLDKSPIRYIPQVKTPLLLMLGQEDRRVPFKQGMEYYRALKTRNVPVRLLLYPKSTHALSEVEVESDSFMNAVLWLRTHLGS
Description: (§1) The soluble fractions of human ovarian (SKOV3), melanoma (C8161), and breast (MDA-MB-231) cancer cells, as well as rat neuroblastoma (B103) cells were treated with 30 nM AA74-1 or DMSO for 30 minutes at 37° C., after which the samples were analyzed by competitive ABPP. Inhibited APEH is highlighted with boxes. Note that other SHs detected in human and mouse proteomes were not inhibited by AA74-1.

rat APEH = target: T3, rat APEH (Rattus norvegicus, UniProt P13676); experiment: Competitive ABPP, soluble fraction of rat neuroblastoma (B103) cells; type: biochemical
T3 construct: endogenous in cells; host or cells: B103 rat neuroblastoma cells (soluble fraction)
T3 sequence (P13676 whole entry): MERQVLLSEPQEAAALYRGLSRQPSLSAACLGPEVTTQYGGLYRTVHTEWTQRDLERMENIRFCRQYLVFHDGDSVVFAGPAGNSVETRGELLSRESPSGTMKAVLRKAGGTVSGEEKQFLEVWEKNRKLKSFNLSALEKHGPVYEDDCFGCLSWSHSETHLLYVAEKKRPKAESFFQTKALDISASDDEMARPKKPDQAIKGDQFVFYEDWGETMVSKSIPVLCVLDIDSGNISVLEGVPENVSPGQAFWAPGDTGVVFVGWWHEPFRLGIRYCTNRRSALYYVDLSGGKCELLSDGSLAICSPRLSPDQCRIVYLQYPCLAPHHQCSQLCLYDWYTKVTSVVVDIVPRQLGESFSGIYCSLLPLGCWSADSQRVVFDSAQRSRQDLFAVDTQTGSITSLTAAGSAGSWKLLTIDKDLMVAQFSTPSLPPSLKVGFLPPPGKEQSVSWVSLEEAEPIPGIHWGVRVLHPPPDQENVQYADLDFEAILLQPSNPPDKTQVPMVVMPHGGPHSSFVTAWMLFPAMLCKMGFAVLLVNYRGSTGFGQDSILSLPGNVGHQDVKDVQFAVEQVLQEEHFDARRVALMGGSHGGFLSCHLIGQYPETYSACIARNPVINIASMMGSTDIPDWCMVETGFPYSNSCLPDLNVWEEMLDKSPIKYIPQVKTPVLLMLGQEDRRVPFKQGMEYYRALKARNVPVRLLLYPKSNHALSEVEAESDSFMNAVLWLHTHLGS
Description: as §1

APEH = target: T4, APEH (Mus musculus, UniProt Q8R146); experiment: ABPP-SILAC in living mouse T-cells; settings: 3 nM inhibitor, 4 h
T4 sequence (Q8R146 1-732): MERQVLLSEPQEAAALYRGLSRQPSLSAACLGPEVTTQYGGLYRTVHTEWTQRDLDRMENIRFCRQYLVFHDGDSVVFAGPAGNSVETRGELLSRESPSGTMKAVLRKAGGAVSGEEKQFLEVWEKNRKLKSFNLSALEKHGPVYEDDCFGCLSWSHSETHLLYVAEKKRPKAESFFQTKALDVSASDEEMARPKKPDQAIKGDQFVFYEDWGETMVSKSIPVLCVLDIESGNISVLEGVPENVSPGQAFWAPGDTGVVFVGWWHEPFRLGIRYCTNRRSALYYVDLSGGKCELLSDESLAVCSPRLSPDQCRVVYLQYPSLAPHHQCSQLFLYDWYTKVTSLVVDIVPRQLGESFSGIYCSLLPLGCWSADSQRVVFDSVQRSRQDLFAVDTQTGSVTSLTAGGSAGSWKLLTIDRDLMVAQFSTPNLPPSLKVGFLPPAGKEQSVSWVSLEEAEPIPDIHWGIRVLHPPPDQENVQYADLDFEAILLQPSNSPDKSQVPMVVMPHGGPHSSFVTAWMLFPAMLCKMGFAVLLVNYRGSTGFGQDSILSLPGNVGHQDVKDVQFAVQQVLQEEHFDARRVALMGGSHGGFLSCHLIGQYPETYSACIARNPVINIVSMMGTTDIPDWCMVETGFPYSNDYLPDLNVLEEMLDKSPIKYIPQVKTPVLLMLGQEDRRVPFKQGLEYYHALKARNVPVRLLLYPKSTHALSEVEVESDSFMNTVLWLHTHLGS

[2] = system: N-terminally modified proteins (APEH substrates) in mouse T-cells; experiment: SILAC-based N-terminal labeling and enrichment in mouse T-cells
ABHD6 [3] = target: T5, ABHD6 (Mus musculus, UniProt Q8R2Y0); experiment: In situ inhibition in Neuro2A cells, competitive ABPP; type: cell-based; settings: 4 hours, same dose as used for DAGLB by KT109 and KT172
T5 sequence (Q8R2Y0 1-336): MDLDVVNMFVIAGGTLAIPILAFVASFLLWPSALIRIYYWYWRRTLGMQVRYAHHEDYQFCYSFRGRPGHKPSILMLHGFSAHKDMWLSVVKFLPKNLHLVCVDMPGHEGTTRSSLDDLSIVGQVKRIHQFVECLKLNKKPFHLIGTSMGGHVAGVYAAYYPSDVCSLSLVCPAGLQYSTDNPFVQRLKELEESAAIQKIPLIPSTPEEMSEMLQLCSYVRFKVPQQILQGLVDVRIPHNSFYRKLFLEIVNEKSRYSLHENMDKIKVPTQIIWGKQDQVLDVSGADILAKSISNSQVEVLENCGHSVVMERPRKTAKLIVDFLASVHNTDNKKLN
Description: For gel-based competitive ABPP studies, proteomes from cells treated in situ with inhibitor for 4 h at 37° C. at the indicated concentrations (n=3) were labeled with HT-01 (1 μM) for 30 min at 37° C. After quenching, SDS-PAGE, and in-gel visualization, the percentage of enzyme activity remaining was determined by measuring the integrated optical intensity of the bands using IMAGER® software. For LC-MS substrate assays, the percentage of enzyme activity remaining was determined by comparing the specific activity (amount of 2-AG formed per min per mg of proteome) of inhibitor with DMSO-treated samples. The IC50 values were determined from a dose-response curve generated using GraphPad PRISM® software.

ABHD6 [4] = target: T5, ABHD6; experiment: ABPP-SILAC in Neuro2A cells; settings: about 4 hours; 25 nM

Row | SMILES | cleavage of N-terminally acetylated residue by APEH-transfected cells [1] | IC50 (human APEH) [nM] | IC50 (rat APEH) [nM] | APEH activity blocked (APEH) | changes in N-terminal labeling signals of five N-terminally acetylated proteins ([2]; 1 nM) [fold] | number of proteins with consistent two-fold or greater reductions in N-terminal labeling signals ([2]; 1 nM versus DMSO) [proteins] | inactivation of ABHD6 in Neuro2A cells (ABHD6 [3]) | ABHD6 activity blocked (ABHD6 [4]) [%]
1 | CC(C)CC(O)(CC(C)C)c1cnn(C(=O)N2CCCC2)n1 [AA74-1] | blocked | 11 | 7 | > 95% and > 97% | 2.5 to 4.6 | 25 |  | 
2 | COc1ccc(-c2ccc(-c3cn(C(=O)N4CCCCC4c4ccccc4)nn3)cc2)cc1 (centres unmarked) [KT195] |  |  |  |  |  |  | completely inactivating ABHD6 | > 90
